Reference: US20080076751A1, “Azetidinone Derivatives and Methods of Use Thereof” (priority 2006, published 2008)

Each molecule was assayed against T1, human CaV3.2 (Homo sapiens, UniProt O95180) (assay: IonWorks screen for hCaV3.2 (T-type calcium current, voltage clamp)). Settings: IonWorks HT, HEK cells, 10 min incubation, pulse 10, 8-point curve; read-out: IW hCav3 2 IC50.
T1 construct: expressed in transfected cells
Type: cell-based
Excerpt: Functional evaluation of voltage-gated ion channels can be used to determine potency and/or single concentration efficacy of the Azetidinone Derivatives of the present invention. Two different methodologies can be used to measure ion currents: the lonWorks HT (Molecular Devices, Sunnyvale, Calif.) a moderate throughput voltage clamp screening platform that utilizes 96-well compound plates and conventional whole cell patch clamp for lower throughput, higher fidelity determinations.
HEK cells are transiently transfected and then selected for stable heterologous expression of different channel proteins of interest. Calcium channel cell lines expressed a resting potassium current, human Kir2.1, and the pore forming α-subunit of voltage-gated calcium channels. In the case of CaV2.1 cells the auxiliary subunit, β2a, is also expressed. Calcium channel lines that are used to generate the data will express either human CaV3.2, rat CaV3.2 or human CaV2.1. The human heart sodium channel, hNaV1.5, are stably expressed in CHO cells.
Cell lines can be grown at 37° C. in humidified incubators, equilibrated with 95% air/5% CO2. CHO cells can be grown in Ham's F-12 medium. HEK cells can be grown in DMEM. All media are supplemented with 10% heat-inactivated fetal bovine serum, penicillin, streptomycin and appropriate selection antibiotics (zeocin, geneticin and/or hygromycin). Cells are passaged when 80% confluent or less.
IonWorks Screen for hCaV3.2
The extracellular buffer for experiments using this instrument contained the following (mM) (NaCl 125, HEPES 10, KCl 5.4, CaCl2 1.8, MgCl2 1.8, 0.2 BaCl2 pH 7.35). The lonWorks uses amphotericin to gain electrical access to the cell interior. The internal solution contained (mM concentrations): 130 K-gluconate, 20 KCl, 5 HEPES-KOH (pH 7.25), 2 CaCl2, 1 MgCl2. Amphotericin added at 5 mg in 65 mL when present (in 650 μL DMSO). All internal and external solutions for this experiment contain 1% DMSO. Cells were acutely trypsinized from a T-75 flask and resuspended in extracellular buffer at a density of 2×10^5 cells/mL.
Experiments were performed at room temperature. Transmembrane potential was held at −100 mV for 5 seconds prior to running the voltage protocol. During this time leak currents were measured during a step to −110 mV (200 milliseconds). T-type calcium currents were activated with a 250 millisecond step to −20 mV. This depolarization step was repeated for a total of 10 pulses with an interpulse interval of 1 second. Data were excluded if the following acceptance criteria were not met: total resistance for the pre-compound scan>65 MΩ, pre-compound current>250 pA, post compound total resistance>50 MΩ.
T-type currents were measured as the peak inward current minus the current at the end of the 250 msec step to −20 mV. After the recoding configuration was established there was a pre-compound measurement of current amplitude. Compound was added as a 3× solution containing 1% DMSO. After incubation with compound for 10 minutes currents were measured again. The current amplitude after compound addition was divided by the pre-compound current for pulse 10 to determine the fraction of current remaining after compound addition. For each compound, 8-point concentration-effect relationships were measured with ½ log serial dilutions.

T1 sequence (O95180 whole entry): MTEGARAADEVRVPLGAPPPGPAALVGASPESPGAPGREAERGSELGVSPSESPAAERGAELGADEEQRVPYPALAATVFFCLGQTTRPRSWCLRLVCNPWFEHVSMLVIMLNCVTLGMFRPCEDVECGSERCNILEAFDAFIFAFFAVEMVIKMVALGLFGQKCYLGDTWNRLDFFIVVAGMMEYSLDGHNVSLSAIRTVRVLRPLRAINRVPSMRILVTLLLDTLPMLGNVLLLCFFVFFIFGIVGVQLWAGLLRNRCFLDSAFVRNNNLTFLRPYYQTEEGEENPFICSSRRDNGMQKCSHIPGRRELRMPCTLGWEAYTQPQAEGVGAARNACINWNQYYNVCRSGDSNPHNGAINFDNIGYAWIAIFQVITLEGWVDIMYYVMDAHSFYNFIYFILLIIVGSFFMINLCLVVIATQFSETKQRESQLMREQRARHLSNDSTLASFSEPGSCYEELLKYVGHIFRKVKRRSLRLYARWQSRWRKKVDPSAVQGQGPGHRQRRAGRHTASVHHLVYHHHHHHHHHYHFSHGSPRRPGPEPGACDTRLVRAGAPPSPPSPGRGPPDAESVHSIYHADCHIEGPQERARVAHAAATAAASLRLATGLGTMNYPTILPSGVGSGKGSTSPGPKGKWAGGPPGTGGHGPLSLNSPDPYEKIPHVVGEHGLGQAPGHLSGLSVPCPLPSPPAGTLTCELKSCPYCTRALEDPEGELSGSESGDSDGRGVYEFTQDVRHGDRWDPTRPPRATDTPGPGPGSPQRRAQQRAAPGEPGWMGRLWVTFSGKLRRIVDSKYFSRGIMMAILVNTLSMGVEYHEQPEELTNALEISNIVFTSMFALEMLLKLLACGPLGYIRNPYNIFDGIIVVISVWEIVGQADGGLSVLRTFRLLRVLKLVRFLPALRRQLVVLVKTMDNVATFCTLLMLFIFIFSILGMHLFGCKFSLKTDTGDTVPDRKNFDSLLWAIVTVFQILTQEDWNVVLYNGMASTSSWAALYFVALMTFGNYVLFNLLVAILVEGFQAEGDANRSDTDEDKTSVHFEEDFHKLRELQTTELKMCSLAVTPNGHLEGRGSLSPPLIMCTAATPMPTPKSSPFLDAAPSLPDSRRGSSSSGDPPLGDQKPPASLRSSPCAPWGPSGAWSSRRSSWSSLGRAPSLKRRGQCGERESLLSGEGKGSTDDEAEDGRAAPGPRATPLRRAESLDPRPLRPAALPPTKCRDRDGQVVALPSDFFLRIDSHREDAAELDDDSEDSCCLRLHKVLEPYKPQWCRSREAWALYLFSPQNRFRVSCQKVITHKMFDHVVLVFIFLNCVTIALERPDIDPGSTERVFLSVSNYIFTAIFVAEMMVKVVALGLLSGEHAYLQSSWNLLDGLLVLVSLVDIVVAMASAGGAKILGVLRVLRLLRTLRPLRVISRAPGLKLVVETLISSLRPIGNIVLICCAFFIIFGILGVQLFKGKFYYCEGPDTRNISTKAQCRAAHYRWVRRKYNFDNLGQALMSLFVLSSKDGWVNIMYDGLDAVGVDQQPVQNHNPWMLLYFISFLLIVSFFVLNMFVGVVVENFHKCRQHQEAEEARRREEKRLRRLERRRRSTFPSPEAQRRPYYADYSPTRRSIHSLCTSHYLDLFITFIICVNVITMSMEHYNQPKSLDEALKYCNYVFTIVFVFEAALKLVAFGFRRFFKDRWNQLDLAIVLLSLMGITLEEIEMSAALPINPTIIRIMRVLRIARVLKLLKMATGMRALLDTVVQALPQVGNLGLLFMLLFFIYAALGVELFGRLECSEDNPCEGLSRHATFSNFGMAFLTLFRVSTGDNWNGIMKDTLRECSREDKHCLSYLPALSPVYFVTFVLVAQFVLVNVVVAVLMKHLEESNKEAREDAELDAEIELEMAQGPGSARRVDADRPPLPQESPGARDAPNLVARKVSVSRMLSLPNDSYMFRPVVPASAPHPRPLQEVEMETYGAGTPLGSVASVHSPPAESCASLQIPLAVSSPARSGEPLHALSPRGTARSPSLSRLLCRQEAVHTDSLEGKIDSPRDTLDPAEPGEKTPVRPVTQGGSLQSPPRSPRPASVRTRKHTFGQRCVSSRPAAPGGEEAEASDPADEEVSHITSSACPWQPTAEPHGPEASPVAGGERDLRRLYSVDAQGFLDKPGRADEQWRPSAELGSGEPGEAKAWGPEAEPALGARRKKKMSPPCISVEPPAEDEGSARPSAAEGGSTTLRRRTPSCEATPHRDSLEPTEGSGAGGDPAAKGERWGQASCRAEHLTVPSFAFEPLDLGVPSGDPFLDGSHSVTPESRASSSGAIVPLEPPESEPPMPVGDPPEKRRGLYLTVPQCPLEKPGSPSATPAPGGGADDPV

Compound | IC50 [µM]
CCC(C)[C@H](NC(=O)N1CCC2(CC1)C(=O)N(c1ccc(F)c(Cl)c1)C2c1ccc(-c2cccnc2)cn1)C(=O)OC (some centres unmarked) | 0.577
CCC(C)[C@H](NC(=O)N1CCC2(CC1)C(=O)N(c1ccc(F)c(Cl)c1)C2c1ccc(-c2ccccc2)cn1)C(=O)OC (some centres unmarked) | 0.084
O=C(Nc1cc(F)cc(F)c1)N1CCC2(CC1)C(=O)N(c1ccc(F)c(Cl)c1)C2c1ccc(Br)cn1 (centres unmarked) | 0.0525
CCC(C)[C@H](NC(=O)N1CCC2(CC1)C(=O)N(c1ccc(F)c(Cl)c1)C2c1ccc(C#N)cn1)C(=O)OC (some centres unmarked) | 0.26
O=C(Nc1cccc(Cl)c1)N1CCC2(CC1)C(=O)N(c1ccc(F)c(Cl)c1)C2c1ccccn1 (centres unmarked) | 0.185
O=C(Nc1cc(F)cc(F)c1)N1CCC2(CC1)C(=O)N(c1cccc(Cl)c1)C2c1cccc[n+]1O (centres unmarked) | 0.157
O=C(Nc1cccc(F)c1)N1CCC2(CC1)C(=O)N(c1ccc(F)c(Cl)c1)C2c1ccccn1 (centres unmarked) | 0.371
O=C(Nc1cc(F)cc(F)c1)N1CCC2(CC1)C(=O)N(c1cncc(F)c1)C2c1ccccn1 (centres unmarked) | 2.1
O=C(Nc1cccnc1)N1CCC2(CC1)C(=O)N(c1cccc(Cl)c1)C2c1ccccn1 (centres unmarked) | 1.12
CC[C@H](C)[C@H](NC(=O)N1CCC2(CC1)C(=O)N(c1cccc(F)c1)C2c1ccc(Cl)cc1)C(=O)OC(C)C (some centres unmarked) | 0.045
CC[C@H](C)[C@@H](C#N)NC(=O)N1CCC2(CC1)C(=O)N(c1cccc(F)c1)C2c1ccc(Cl)cc1 (some centres unmarked) | 0.035
CC(C)CN1C(=O)C2(CCN(C(=O)N[C@@H](C)c3ccc(F)cc3)CC2)C1c1ccc(Cl)cc1 (some centres unmarked) | 1.83
CS(=O)(=O)c1ccccc1N1C(=O)C2(CCN(C(=O)Nc3cc(F)cc(F)c3)CC2)C1c1ccc(Cl)cc1 (centres unmarked) | 0.094
O=C(NCc1ccccc1F)N1CCC2(CC1)C(=O)N(c1cccc(F)c1)C2c1ccc(Cl)cc1 (centres unmarked) | 0.269
C[C@H](NC(=O)N1CCC2(CC1)C(=O)N(c1cncnc1)C2c1ccc(Cl)cc1)c1ccc(F)cc1 (some centres unmarked) | 2.33
CC(NC(=O)N1CCC2(CC1)C(=O)N(c1cccc(F)c1)C2c1ccc(Cl)cc1)c1ccccn1 (centres unmarked) | 2.17
CC(NC(=O)N1CCC2(CC1)C(=O)N(c1cccc(F)c1)C2c1ccc(Cl)cc1)c1ccncc1 (centres unmarked) | 0.694
O=C(NCc1ccccn1)N1CCC2(CC1)C(=O)N(c1cccc(F)c1)C2c1ccc(Cl)cc1 (centres unmarked) | 1.33
C[C@H](NC(=O)N1CCC2(CC1)C(=O)N(c1cncnc1)C2c1cccnc1)c1ccc(F)cc1 (some centres unmarked) | 2.59
CC[C@H](C)[C@H](NC(=O)N1CCC2(CC1)C(=O)N(c1cccc(F)c1)C2c1ccc(Cl)cc1)C(=O)OC (single isomer, unassigned) | 0.057
N#Cc1cccc(NC(=O)N2CCC3(CC2)C(=O)N(c2cccc(F)c2)C3c2ccc(Cl)cc2)c1 (single isomer, unassigned) | 0.183
O=C(Nc1cccc(C(F)(F)F)c1)N1CCC2(CC1)C(=O)N(c1ccc(F)c(Cl)c1)C2c1ccccn1 (centres unmarked) [drawing 560] | 0.00433
O=C(Nc1cccc(C(F)(F)F)c1)N1CCC2(CC1)C(=O)N(c1ccc(F)c(Cl)c1)C2c1ccccn1 (centres unmarked) [drawing 561] | 0.083
O=C(Nc1cccc(C(F)(F)F)c1)N1CCC2(CC1)C(=O)N(c1cncc(Cl)c1)C2c1ccccn1 (centres unmarked) [drawing 562] | 0.155
N#Cc1cc(F)cc(NC(=O)N2CCC3(CC2)C(=O)N(c2ccc(F)c(Cl)c2)C3c2ccccn2)c1 (centres unmarked) [drawing 565] | 0.0175
N#Cc1cccc(N2C(=O)C3(CCN(C(=O)Nc4cccc(C(F)(F)F)c4)CC3)C2c2ccccn2)c1 (centres unmarked) [drawing 568] | 0.051

Second part, the molecule after the results:

IC50 [µM] | Compound
0.277 | CC[C@H](C)[C@H](NC(=O)N1CCC2(CC1)C(=O)N(C(C)C)C2c1ccc(Br)cc1)C(=O)OC (some centres unmarked)
0.1 | CCC(C)[C@H](NC(=O)N1CCC2(CC1)C(=O)N(c1ccc(F)c(Cl)c1)C2c1ccc(Br)cn1)C(=O)OC (some centres unmarked)
0.634 | CCC(C)[C@H](NC(=O)N1CCC2(CC1)C(=O)N(c1ccc(F)c(Cl)c1)C2c1ccc(-c2ccncc2)cn1)C(=O)OC (some centres unmarked)
0.136 | C[C@H](NC(=O)N1CCC2(CC1)C(=O)N(c1ccc(F)c(Cl)c1)C2c1ccc(Br)cn1)c1ccc(F)cc1 (some centres unmarked)
1.26 | N#Cc1cncc(N2C(=O)C3(CCN(C(=O)Nc4cccc(C(F)(F)F)c4)CC3)C2c2ccccn2)c1 (centres unmarked)
3.24 | C[C@H](NC(=O)N1CCC2(CC1)C(=O)N(c1cncc(Cl)c1)C2c1ccccn1)c1ccc(F)cc1 (some centres unmarked)
0.358 | N#Cc1cccc(NC(=O)N2CCC3(CC2)C(=O)N(c2ccc(F)c(Cl)c2)C3c2ccccn2)c1 (centres unmarked)
0.518 | O=C(Nc1cc(F)cc(F)c1)N1CCC2(CC1)C(=O)N(c1cncc(Cl)c1)C2c1ccccn1 (centres unmarked)
2.38 | N#Cc1cncc(N2C(=O)C3(CCN(C(=O)Nc4cc(F)cc(F)c4)CC3)C2c2ccccn2)c1 (centres unmarked)
1.48 | N#Cc1cccc(NC(=O)N2CCC3(CC2)C(=O)N(c2cncc(Cl)c2)C3c2ccccn2)c1 (centres unmarked)
2.61 | CC[C@H](C)[C@H](NC(=O)N1CCC2(CC1)C(=O)N(c1cncnc1)C2c1ccccn1)C(=O)OC (some centres unmarked)
2.01 | C[C@H](NC(=O)N1CCC2(CC1)C(=O)N(c1cncnc1)C2c1ccccn1)c1ccc(F)cc1 (some centres unmarked)
1.16 | O=C(Nc1cc(F)cc(F)c1)N1CCC2(CC1)C(=O)N(c1ccccn1)C2c1ccccn1 (centres unmarked)
0.675 | C[C@@H](NC(=O)N1CCC2(CC1)C(=O)N(c1cccc(F)c1)C2c1ccc(Cl)cc1)c1ccc(F)cc1 (some centres unmarked)
0.251 | COC(=O)[C@H](COC(C)(C)C)NC(=O)N1CCC2(CC1)C(=O)N(c1cccc(F)c1)C2c1ccc(Cl)cc1 (some centres unmarked)
0.224 | CC[C@H](NC(=O)N1CCC2(CC1)C(=O)N(c1cccc(F)c1)C2c1ccc(Cl)cc1)c1ccccc1 (some centres unmarked)
0.139 | C[C@H](NC(=O)N1CCC2(CC1)C(=O)N(c1cccc(F)c1)C2c1ccc(Cl)cc1)c1ccccc1 (some centres unmarked)
0.538 | O=C(NCc1cccc(F)c1)N1CCC2(CC1)C(=O)N(c1cccc(F)c1)C2c1ccc(Cl)cc1 (centres unmarked)
0.351 | C[C@@H](NC(=O)N1CCC2(CC1)C(=O)N(c1cccc(F)c1)C2c1ccc(Cl)cc1)c1ccccc1 (some centres unmarked)
0.082 | C[C@H](NC(=O)N1CCC2(CC1)C(=O)N(c1cccc(F)c1)C2c1ccc(Cl)cc1)c1ccc(F)cc1 (some centres unmarked)
0.611 | C[C@H](NC(=O)N1CCC2(CC1)C(=O)N(c1ccccc1S(C)(=O)=O)C2c1ccc(Cl)cc1)c1ccc(F)cc1 (some centres unmarked)
0.182 | CC[C@H](C)[C@H](NC(=O)N1CCC2(CC1)C(=O)N(c1cccc(F)c1)C2c1ccc(Cl)cc1)C(=O)NC (some centres unmarked)
0.109 | CC[C@H](C)[C@H](NC(=O)N1CCC2(CC1)C(=O)N(c1ccccc1S(C)(=O)=O)C2c1ccc(Cl)cc1)C(=O)OC (some centres unmarked)
0.965 | CC[C@H](C)[C@H](NC(=O)N1CCC2(CC1)C(=O)N(c1cccc(F)c1)C2c1ccc(Cl)cc1)C(N)=O (some centres unmarked)
0.827 | COC(=O)[C@H](C)NC(=O)N1CCC2(CC1)C(=O)N(c1cccc(F)c1)C2c1ccc(Cl)cc1 (some centres unmarked)
2.46 | CC(NC(=O)N1CCC2(CC1)C(=O)N(c1cccc(F)c1)C2c1ccc(Cl)cc1)c1cccnc1 (centres unmarked)
0.39 | O=C(Nc1cc(F)cc(F)c1)N1CCC2(CC1)C(=O)N(c1cccc(F)c1)C2c1ccc(Cl)cc1 (single isomer, unassigned)
0.0955 | O=C(Nc1cccc(C(F)(F)F)c1)N1CCC2(CC1)C(=O)N(c1cccc(Cl)c1)C2c1ccccn1 (centres unmarked) [drawing 563]
0.0195 | O=C(Nc1cccc(C(F)(F)F)c1)N1CCC2(CC1)C(=O)N(c1cccc(Cl)c1)C2c1ccccn1 (centres unmarked) [drawing 564]
0.371 | N#Cc1cccc(N2C(=O)C3(CCN(C(=O)Nc4cccc(C(F)(F)F)c4)CC3)C2c2ccccn2)c1 (centres unmarked) [drawing 567]
